Experiments:
serum triglyceride = assay: Effect of CoA on serum triglyceride in patients with hyperlipemia; format: in vivo, human; conditions: oral 35 units three times daily
Method: (§1) Object: Individuals with plasma lipid more than 90% of upper limit of normal person were chosen, i.e. serum cholesterol >230 mg %, or triglyceride >160 mg %, 39 patients in total, 14 male, aged from 28-65; 25 female, aged from 32 to 70.
(§2) Oral dosage of CoA: one tablet per time, 35 units per tablet, administered on empty stomach three times daily. Three months was used as a course of treatment. During the course of the administration, the patients had diet same as the normal and stopped the administration of any other lipid-lowering medicament.
(§3) Measurement of plasma lipid: venous blood samples were taked from 12-14 hrs-fasting patients before administration and one month and 3 months after administration. Concentration of serum cholesterol and triglyceride were measured after isolation of serum. In the meantime, each patients' medical history was inquired, blood pressure was measured and liver function was determined.
(1) Effect on triglyceride: Statistical analysis were carried out on the difference of the concentration of serum triglyceride of hyperlipemia patients between before and after the administration of CoA by individual comparison test.

peripheral platelet = assay: Effect of CoA on peripheral platelet of experimental dogs; format: in vivo, dog
Method: Object: 10 experimental dogs were used and devided into 2 groups of 5 to which oral or injection preparations of CoA was adminisered, respectively. Their peripheral platelet samples were taken and tested at intervals to observe the differences between before and after administration.
Dosage of CoA: Oral administration group, 100 units per time, twice per day. Injection administration group, 35 units per time, twice per day.
Result: Statistical analysis were carried out on the changes of the number of platelets before and after the administration of CoA to dogs by individual comparison test. It is noted that exogenous CoA can improve the level of platelet in experimental dogs in a short time either administered by oral or injection route.

serum cholesterol = assay: Effect of CoA on serum cholesterol in patients with hyperlipemia; format: in vivo, human; conditions: oral 35 units three times daily
Method: as §1, §2, §3
(2) Effect on cholesterol: Statistical analysis was carried out on the difference of the concentration of serum cholesterol of patients with hyperlipemia between before and after the administration of CoA by individual comparison test.

`CC(C)(COP(=O)(O)OP(=O)(O)OC[C@H]1O[C@@H](n2cnc3c(N)ncnc32)[C@H](O)[C@@H]1OP(=O)(O)O)[C@@H](O)C(=O)NCCC(=O)NCCS` [CoA, coenzyme A] was tested, and the “Average difference of triglyceride concentration between before and after administration (decrement)” value (serum triglyceride; one month) was 64.2 mg %, the “Average difference of triglyceride concentration between before and after administration (decrement)” value (serum triglyceride; three months) was 75.5 mg % and the “Average increment of platelets” value (peripheral platelet; injection administration group, day 8 (P<0.01)) was 170,800 /mm^3. The “Average increment of platelet” value (peripheral platelet; injection administration, 35 units twice per day, sampling time 1) was 0.28 10,000/mm^3, the “Average increment of platelet” value (peripheral platelet; injection administration, 35 units twice per day, sampling time 3) was 7.44 10,000/mm^3 and the “Average increment of platelet” value (peripheral platelet; injection administration, 35 units twice per day, sampling time 6) was 5.48 10,000/mm^3. For the same compound, the “Average increment of platelet” value (peripheral platelet; injection administration, 35 units twice per day, sampling time 8) was 17.08 10,000/mm^3, the “Average increment of platelet” value (peripheral platelet; injection administration, 35 units twice per day, sampling time 10) was 11.36 10,000/mm^3 and the “Average increment of platelet” value (peripheral platelet; injection administration, 35 units twice per day, sampling time 13) was 3.68 10,000/mm^3. The “Average increment of platelets” value (peripheral platelet; oral administration group, day 6 (P<0.05)) was 133,000 /mm^3, the “Average increment of platelet” value (peripheral platelet; oral administration, 100 units twice per day, sampling time 1) was 8.64 10,000/mm^3 and the “Average increment of platelet” value (peripheral platelet; oral administration, 100 units twice per day, sampling time 3) was 8.06 10,000/mm^3. The “Average increment of platelet” value (peripheral platelet; oral administration, 100 units twice per day, sampling time 6) was 13.3 10,000/mm^3, the “Average increment of platelet” value (peripheral platelet; oral administration, 100 units twice per day, sampling time 8) was 4.25 10,000/mm^3 and the “Average increment of platelet” value (peripheral platelet; oral administration, 100 units twice per day, sampling time 10) was 1.96 10,000/mm^3. For the same compound, the “Average increment of platelet” value (peripheral platelet; oral administration, 100 units twice per day, sampling time 13) was −2.52 10,000/mm^3, the “Average difference of serum cholesterol concentration between before and after administration (decrement)” value (serum cholesterol; one month) was 25.7 mg % and the “Average difference of serum cholesterol concentration between before and after administration (decrement)” value (serum cholesterol; three months) was 22.1 mg %.

From US6509035B1, “Oral preparation of coenzyme a useful for lowering blood lipid and a method producing for same” (Shanghai Materia Medica Bioengineering Institute, priority 1999, dated 2003)
